According to ChEMBL document CHEMBL3352715, “Synthesis of new verapamil analogues and their evaluation in combination with rifampicin against Mycobacterium tuberculosis and molecular docking studies in the binding site of efflux protein Rv1258c” (2014):
In brackets after ≈: the same amount, converted by molar mass.

System: Mycobacterium tuberculosis
Assay: Antimycobacterial activity against Mycobacterium tuberculosis H37Rv by MABA method
Type: functional

SMILES | MIC99
COc1ccc(CCN(CCCC(C#N)(c2ccc(OC)c(OC)c2)C(C)C)C2CC2)cc1OC (stereo not drawn) | 125 µM (≈ 60.1 µg/mL)
COc1ccc(N(C)CCCC(C#N)(c2ccc(OC)c(OC)c2)C(C)C)cc1OC (stereo not drawn) | 1000 µM (≈ 427 µg/mL)
CCCC(C#N)(CCCN(C)CCc1ccc(OC)c(OC)c1)c1ccc(OC)c(OC)c1 (stereo not drawn) | 500 µM (≈ 227 µg/mL)
COc1ccc(CCNCCCC(C#N)(c2ccc(OC)c(OC)c2)C(C)C)cc1OC (stereo not drawn) [NORVERAPAMIL] | 500 µM (≈ 220 µg/mL)
COc1ccc(C(C#N)(CCCN2CCN(c3ccccc3)CC2)C(C)C)cc1OC (stereo not drawn) | 250 µM (≈ 105 µg/mL)
COc1ccc(CCN(C)CCCC(C#N)(c2ccc(OC)c(OC)c2)C(C)C)cc1OC (stereo not drawn) [VERAPAMIL] | 500 µM (≈ 227 µg/mL)
COc1ccc(C(C#N)(CCCN2CCC(O)(c3ccccc3)CC2)C(C)C)cc1OC (stereo not drawn) | 250 µM (≈ 109 µg/mL)
COc1ccc(C(C#N)(CCCN2CCN(c3ccccn3)CC2)C(C)C)cc1OC (stereo not drawn) | 250 µM (≈ 106 µg/mL)
COc1ccc(C(C#N)(CCCN2CCN(c3ccccc3F)CC2)C(C)C)cc1OC (stereo not drawn) | 62.5 µM (≈ 27.5 µg/mL)
COc1ccc(CN(C)CCCC(C#N)(c2ccc(OC)c(OC)c2)C(C)C)cc1OC (stereo not drawn) | 1000 µM (≈ 441 µg/mL)
COc1ccc(CCN(C)CCCC(C#N)(c2ccc(OC)c(OC)c2)C2CCCC2)cc1OC (stereo not drawn) | 125 µM (≈ 60.1 µg/mL)
COc1ccc(C(C#N)(CCCN2CCOCC2)C(C)C)cc1OC (stereo not drawn) | 1000 µM (≈ 346 µg/mL)
CO[C@H]1/C=C/O[C@@]2(C)Oc3c(C)c(O)c4c(O)c(c(/C=N/N5CCN(C)CC5)c(O)c4c3C2=O)NC(=O)/C(C)=C\C=C\[C@H](C)[C@H](O)[C@@H](C)[C@@H](O)[C@@H](C)[C@H](OC(C)=O)[C@@H]1C [RIFAMPIN] | 0.0083 µM (≈ 0.00683 µg/mL)
COc1ccc(C(C#N)(CCCN2CCCCC2)C(C)C)cc1OC (stereo not drawn) | 1000 µM (≈ 344 µg/mL)
CCN(CCCC(C#N)(c1ccc(OC)c(OC)c1)C(C)C)CCc1ccc(OC)c(OC)c1 (stereo not drawn) | 1000 µM (≈ 469 µg/mL)
COc1ccc(CCN(C)CCCC(C)(C#N)c2ccc(OC)c(OC)c2)cc1OC (stereo not drawn) | 1000 µM (≈ 427 µg/mL)
COc1ccc(CCN(C)CCCC(C#N)(c2ccc(OC)c(OC)c2)C2CCCCC2)cc1OC (stereo not drawn) | 62.5 µM (≈ 30.9 µg/mL)
CCC(C#N)(CCCN(C)CCc1ccc(OC)c(OC)c1)c1ccc(OC)c(OC)c1 (stereo not drawn) | 1000 µM (≈ 441 µg/mL)
COc1ccc(CCN(C)CCCC(C#N)c2ccc(OC)c(OC)c2)cc1OC (stereo not drawn) | 1000 µM (≈ 413 µg/mL)
COc1ccc(CCN(CCCC(C#N)(c2ccc(OC)c(OC)c2)C(C)C)Cc2ccccc2)cc1OC (stereo not drawn) | 1000 µM (≈ 531 µg/mL)
CCCN(CCCC(C#N)(c1ccc(OC)c(OC)c1)C(C)C)CCc1ccc(OC)c(OC)c1 (stereo not drawn) | 500 µM (≈ 241 µg/mL)
COc1ccc(C(C#N)(CCCN2CCC(O)CC2)C(C)C)cc1OC (stereo not drawn) | 1000 µM (≈ 360 µg/mL)
COc1ccc(C(C#N)(CCCN2CCC(N3CCCCC3)CC2)C(C)C)cc1OC (stereo not drawn) | 500 µM (≈ 214 µg/mL)
